Where only a bound is given, the exact number is not on record here.

Our source for the IC50 values is patent US20230092890A1, “1, 3, 4-Oxadiazole derivative compounds as histone deacetylase 6 inhibitor, and the pharmaceutical composition comprising the same” (Chong Kun Dang Pharmaceutical Corp., priority 2019, published 2023).

In one assay the target is T1, HDAC6 human recombinant (Homo sapiens, UniProt Q9UBN7).
T1 construct: purchased Calbiochem 382180
T1 sequence (Q9UBN7 1-1215): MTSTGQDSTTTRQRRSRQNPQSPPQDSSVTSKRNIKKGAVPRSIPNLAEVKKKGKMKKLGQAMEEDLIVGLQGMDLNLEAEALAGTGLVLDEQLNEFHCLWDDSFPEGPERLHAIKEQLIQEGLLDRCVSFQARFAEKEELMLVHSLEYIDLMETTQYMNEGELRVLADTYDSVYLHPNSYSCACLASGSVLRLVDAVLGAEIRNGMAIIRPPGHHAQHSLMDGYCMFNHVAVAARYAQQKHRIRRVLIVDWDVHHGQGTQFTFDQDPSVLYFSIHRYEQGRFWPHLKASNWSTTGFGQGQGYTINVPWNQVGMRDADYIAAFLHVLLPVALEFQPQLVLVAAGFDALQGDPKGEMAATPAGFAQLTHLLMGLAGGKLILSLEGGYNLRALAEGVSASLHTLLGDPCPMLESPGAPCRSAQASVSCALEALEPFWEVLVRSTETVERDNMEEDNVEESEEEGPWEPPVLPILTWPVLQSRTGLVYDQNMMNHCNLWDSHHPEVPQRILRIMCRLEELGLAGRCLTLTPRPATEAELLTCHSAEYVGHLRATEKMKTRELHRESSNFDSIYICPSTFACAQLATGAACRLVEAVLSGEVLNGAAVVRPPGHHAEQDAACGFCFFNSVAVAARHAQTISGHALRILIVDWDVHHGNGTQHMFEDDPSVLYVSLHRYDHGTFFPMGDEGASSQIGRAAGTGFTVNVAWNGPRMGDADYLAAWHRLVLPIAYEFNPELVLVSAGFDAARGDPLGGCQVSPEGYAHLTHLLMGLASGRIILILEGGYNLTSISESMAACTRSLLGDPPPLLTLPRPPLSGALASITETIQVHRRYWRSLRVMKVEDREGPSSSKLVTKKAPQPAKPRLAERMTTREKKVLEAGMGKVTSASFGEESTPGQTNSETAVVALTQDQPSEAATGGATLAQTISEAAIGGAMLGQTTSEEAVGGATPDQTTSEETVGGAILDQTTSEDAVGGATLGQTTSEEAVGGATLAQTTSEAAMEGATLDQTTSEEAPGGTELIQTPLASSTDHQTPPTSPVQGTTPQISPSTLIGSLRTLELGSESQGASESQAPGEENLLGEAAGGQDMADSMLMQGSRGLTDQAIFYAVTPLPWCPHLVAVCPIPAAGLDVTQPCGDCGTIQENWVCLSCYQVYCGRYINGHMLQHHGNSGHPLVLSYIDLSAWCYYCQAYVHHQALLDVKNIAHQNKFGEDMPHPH
In words: HDAC enzyme activity inhibition (in vitro), HDAC6 assay. It counts as biochemical. The settings on record: samples at 0.1, 1, 10, 100 and 1000 nM; 37° C. 60 minutes; fluorescence Ex 390, Em 460; read-out: HDAC6 IC50. In short, it runs like this:
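Fluorescence (Ex 390, Em 460) read after a 37° C, 60 min enzyme reaction and a further 30 min developer step at 37° C. Uses recombinant human HDAC6; HDAC1 arm dosed at 100, 1000, 10000 nM.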

A further assay has as its target T2, HDAC1 (Homo sapiens, UniProt Q13547).
T2 construct: purchased Enzolifesciences BML-AK511
In words: HDAC enzyme activity inhibition (in vitro), HDAC1 Fluorimetric Drug Discovery Assay Kit. The format is biochemical. The note with it: samples at 100, 1000 and 10000 nM; 37° C. 60 minutes; fluorescence Ex 390, Em 460; read-out: HDAC1 IC50. Summed up: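 Fluorimetric read-out (Ex 390, Em 460) after a 60 min 37° C enzyme reaction and 30 min 37° C developer step. Tested levels: 0.1-1000 nM (0.1, 1, 10, 100, 1000) on recombinant human HDAC6; 100, 1000 and 10000 nM on HDAC1 kit enzyme.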

T2 sequence (Q13547 whole entry): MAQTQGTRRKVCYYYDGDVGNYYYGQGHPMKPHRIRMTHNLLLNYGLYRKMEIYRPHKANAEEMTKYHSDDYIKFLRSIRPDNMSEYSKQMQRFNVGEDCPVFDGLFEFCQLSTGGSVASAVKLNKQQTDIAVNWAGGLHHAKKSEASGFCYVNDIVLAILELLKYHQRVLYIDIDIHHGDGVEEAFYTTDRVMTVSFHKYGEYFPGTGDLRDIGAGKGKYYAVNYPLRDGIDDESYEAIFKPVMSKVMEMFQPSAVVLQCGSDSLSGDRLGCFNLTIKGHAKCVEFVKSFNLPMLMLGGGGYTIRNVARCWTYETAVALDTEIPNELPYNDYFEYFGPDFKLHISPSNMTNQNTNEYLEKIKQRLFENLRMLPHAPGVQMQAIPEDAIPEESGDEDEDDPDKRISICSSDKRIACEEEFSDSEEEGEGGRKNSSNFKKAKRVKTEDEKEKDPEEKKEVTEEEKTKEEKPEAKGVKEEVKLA

A word on the IC50: it is the concentration that inhibits the measured activity by half. Consider `COc1ccc(-c2ccc3c(c2)n(C2CCN(C)CC2)c(=O)n3Cc2ccc(-c3nnc(C(F)F)o3)cc2F)cn1` [Compound 164, 1-(4-(5-(difluoromethyl)-1,3,4-oxadiazole-2-yl)-2-fluorobenzyl)-5-(6-methoxypyridine-3-yl)-3-(1-methylpiperidine-4-yl)-1,3-dihydro-2H-benzo[d]imidazole-2-one], for which the figures for the IC50 at HDAC6 human recombinant and on HDAC1 were 61 nM and > 10000 nM, respectively.
For `Cn1c(=O)n(Cc2ccc(-c3nnc(C(F)F)o3)cn2)c2cc(F)c(-c3cccnc3)cc21` [Compound 165, 1-((5-(5-(difluoromethyl)-1,3,4-oxadiazole-2-yl)pyridine-2-yl)methyl)-6-fluoro-3-methy 1-5-(pyridine-3-yl)-1,3-dihydro-2H-benzo[d]imidazole-2-one] the same measures were 10 nM and > 10000 nM.
For `Cn1c(=O)n(Cc2ccc(-c3nnc(C(F)F)o3)cn2)c2cc(F)c(-c3cccc(F)c3)cc21` [Compound 166, 1-((5-(5-(difluoromethyl)-1,3,4-oxadiazole-2-yl)pyridine-2-yl)methyl)-6-fluoro-5-(3-fluorophenyl)-3-methyl-1,3-dihydro-2H-benzo[d]imidazole-2-one], the IC50 at HDAC6 human recombinant is 34 nM; at HDAC1, > 10000 nM.
For `Cn1c(=O)n(Cc2ccc(-c3nnc(C(F)F)o3)cn2)c2cc(F)c(-c3ccc(C(F)(F)F)cc3)cc21` [Compound 167, 1-((5-(5-(difluoromethyl)-1,3,4-oxadiazole-2-yl)pyridine-2-yl)methyl)-6-fluoro-3-methy 1-5-(4-(trifluoromethyl)phenyl)-1,3-dihydro-2H-benzo[d]imidazole-2-one] the same measures were 138 nM and > 10000 nM.
For the molecule `Cn1c(=O)n(Cc2ccc(-c3nnc(C(F)F)o3)cn2)c2cc(F)c(-c3ccoc3)cc21` [Compound 168, 1-((5-(5-(difluoromethyl)-1,3,4-oxadiazole-2-yl)pyridine-2-yl)methyl)-6-fluoro-5-(furan-3-yl)-3-methyl-1,3-dihydro-2H-benzo[d]imidazole-2-one], the IC50 was 40 nM at HDAC6 human recombinant and > 10000 nM at HDAC1.
As for `Cn1c(=O)n(Cc2ccc(-c3nnc(C(F)F)o3)cc2F)c2cc(F)c(-c3cccnc3)cc21` [Compound 169, 1-(4-(5-(difluoromethyl)-1,3,4-oxadiazole-2-yl)-2-fluorobenzyl)-6-fluoro-3-methyl-5-(pyridine-3-yl)-1,3-dihydro-2H-benzo[d]imidazole-2-one], the concentration for half-maximal inhibition (IC50) on HDAC6 human recombinant is 21 nM; at HDAC1, > 10000 nM.
Consider `Cc1ccc(-c2cc3c(cc2F)n(Cc2ccc(-c4nnc(C(F)F)o4)cc2F)c(=O)n3C)o1` [Compound 170, 1-(4-(5-(difluoromethyl)-1,3,4-oxadiazole-2-yl)-2-fluorobenzyl)-6-fluoro-3-methyl-5-(5-methylfuran-2-yl)-1,3-dihydro-2H-benzo[d]imidazole-2-one], for which the half-inhibitory concentration (IC50) was 211 nM on HDAC6 human recombinant and > 10000 nM at HDAC1.
For `CC(=O)N1CCC(n2c(=O)n(Cc3ccc(-c4nnc(C(F)F)o4)cn3)c3c(F)cccc32)CC1` [Compound 171, 1-(1-acetylpiperidine-4-yl)-3-((5-(5-(difluoromethyl)-1,3,4-oxadiazole-2-yl)pyridine-2-yl)methyl)-4-fluoro-1,3-dihydro-2H-benzo[d]imidazole-2-one] the same measures were 40 nM and > 10000 nM.
For `CC(=O)N1CCC(n2c(=O)n(Cc3ccc(-c4nnc(C(F)F)o4)cc3)c3cc(F)ccc32)CC1` [Compound 172, 1-(1-acetylpiperidine-4-yl)-3-(4-(5-(difluoromethyl)-1,3,4-oxadiazole-2-yl)benzyl)-5-fluoro-1,3-dihydro-2H-benzo[d]imidazole-2-one] the same measures were 34 nM and > 10000 nM.
For `CC(=O)N1CCC(n2c(=O)n(Cc3ccc(-c4nnc(C(F)F)o4)cn3)c3cc(F)c(F)cc32)CC1` [Compound 173, 1-(1-acetylpiperidine-4-yl)-3-((5-(5-(difluoromethyl)-1,3,4-oxadiazole-2-yl)pyridine-2-yl)methyl)-5,6-difluoro-1,3-dihydro-2H-benzo[d]imidazole-2-one] the same measures were 31 nM and > 10000 nM.
Regarding `CC(=O)N1CCC(n2c(=O)n(Cc3ccc(-c4nnc(C(F)F)o4)cc3F)c3cc(F)c(F)cc32)CC1` [Compound 174, 1-(1-acetylpiperidine-4-yl)-3-(4-(5-(difluoromethyl)-1,3,4-oxadiazole-2-yl)-2-fluorobenzyl)-5,6-difluoro-1,3-dihydro-2H-benzo[d]imidazole-2-one], the half-inhibitory concentration (IC50) at HDAC6 human recombinant was 50 nM; at HDAC1, > 10000 nM.
Take `CC(=O)N1CCC(n2c(=O)n(Cc3ccc(-c4nnc(C(F)F)o4)cc3)c3cc(F)c(F)cc32)CC1` [Compound 175, 1-(1-acetylpiperidine-4-yl)-3-(4-(5-(difluoromethyl)-1,3,4-oxadiazole-2-yl)benzyl)-5,6-difluoro-1,3-dihydro-2H-benzo[d]imidazole-2-one]: the IC50 is 50 nM on HDAC6 human recombinant and > 10000 nM on HDAC1.
For `CC(=O)N1CCC(n2c(=O)n(Cc3ccc(-c4nnc(C(F)F)o4)cn3)c3cc(C(F)(F)F)ccc32)CC1` [Compound 176, 1-(1-acetylpiperidine-4-yl)-3-((5-(5-(difluoromethyl)-1,3,4-oxadiazole-2-yl)pyridine-2-yl)methyl)-5-(trifluoromethyl)-1,3-dihydro-2H-benzo[d]imidazole-2-one] the same measures were 42 nM and > 10000 nM.
The like results for `Cc1ccc(-c2cc3c(cc2F)n(Cc2ccc(-c4nnc(C(F)F)o4)cn2)c(=O)n3C)o1` [Compound 177, 1-((5-(5-(difluoromethyl)-1,3,4-oxadiazole-2-yl)pyridine-2-yl)methyl)-6-fluoro-3-methy 1-5-(5-methylfuran-2-yl)-1,3-dihydro-2H-benzo[d]imidazole-2-one] were, in that order, 71 nM and > 10000 nM.
With `Cc1noc(C)c1-c1cc2c(cc1F)n(Cc1ccc(-c3nnc(C(F)F)o3)cn1)c(=O)n2C` [Compound 178, 1-((5-(5-(difluoromethyl)-1,3,4-oxadiazole-2-yl)pyridine-2-yl)methyl)-5-(3,5-dimethylisoxazole-4-yl)-6-fluoro-3-methyl-1,3-dihydro-2H-benzo[d]imidazole-2-one], the results for the IC50 on HDAC6 human recombinant and at HDAC1 were 20 nM and > 10000 nM, respectively.
For `CN1CCC(n2c(=O)n(Cc3ccc(-c4nnc(C(F)F)o4)cc3F)c3ccc(C4CCN(C(=O)CO)CC4)cc32)CC1` [Compound 179, 1-(4-(5-(difluoromethyl)-1,3,4-oxadiazole-2-yl)-2-fluorobenzyl)-5-(1-(2-hydroxyacetyl)piperidine-4-yl)-3-(1-methylpiperidine-4-yl)-1,3-dihydro-2H-benzo[d]imidazole-2-one], the half-inhibitory concentration (IC50) on HDAC6 human recombinant is 145 nM; on HDAC1 it was > 10000 nM.
For `CC(=O)N1CCC(n2c(=O)n(Cc3ccc(-c4nnc(C(F)F)o4)cc3F)c3cc(C(F)(F)F)ccc32)CC1` [Compound 180, 1-(1-acetylpiperidine-4-yl)-3-(4-(5-(difluoromethyl)-1,3,4-oxadiazole-2-yl)-2-fluorobenzyl)-5-(trifluoromethyl)-1,3-dihydro-2H-benzo[d]imidazole-2-one] the same measures were 38 nM and > 10000 nM.
For `CC(=O)N1CCC(n2c(=O)n(Cc3ccc(-c4nnc(C(F)F)o4)cn3)c3ccc(Cl)cc32)CC1` [Compound 181, 3-(1-acetylpiperidine-4-yl)-5-chloro-1-((5-(5-(difluoromethyl)-1,3,4-oxadiazole-2-yl)pyridine-2-yl)methyl)-1,3-dihydro-2H-benzo[d]imidazole-2-one] the same measures were 68 nM and > 10000 nM.
